Experimental data: publication PMC3441706 (PLoS ONE, 2012)

Legend:
Breast Cancer cell lines = experiment: NCI-60 DTP human tumor cell line screen (sulphorhodamine B); assay type: cell-based; details: 5 cell lines, 48 hours incubation
Procedure: (§1) NVX-412 was included in an anti-cancer activity screen by the National Cancer Institute (NCI). The compound was tested against 59 different human tumor cell lines, representing leukemia, melanoma and cancers of the lung, colon, brain, ovary, breast, prostate, and kidney (for a complete list of cell lines please refer to Shoemaker et al. 2006 [5]). The methodology of this in vitro cancer screen is described in detail on the NCI website (http://dtp.nci.nih.gov/branches/btb/ivclsp.html). Briefly, the human tumor cell lines of the cancer screening panel were grown in RPMI 1640 medium containing 5% FCS and 2 mM L-glutamine in 96-well plates at densities ranging from 5,000 to 40,000 cells/well. After 24 hours the experimental drug was added at 5 concentrations plus control and cells were incubated for additional 48 hours. For determination of the growth-inhibitory effect of the compound a sulphorhodamine B assay was performed that employs a chemical fixation step at the end of drug treatment and a subsequent staining for 10 minutes. After a washing step, absorbance was determined at 515 nm. Three different dose response parameters are then calculated: growth inhibition of 50% (GI50), which is the drug concentration resulting in a 50% reduction in the net protein increase, the drug concentration resulting in total growth inhibition (TGI) and the LC50, indicating a net loss of cells following treatment.

[1] = tested on: Central Nervous System Cancer cell lines; experiment: as above; assay type: cell-based; details: 5 cell lines, 48 hours incubation
Procedure: as §1

Colon Cancer cell lines = experiment: as above; assay type: cell-based; details: 7 cell lines, 48 hours incubation
Procedure: as §1

Leukemia cell lines = experiment: as above; assay type: cell-based; details: 6 cell lines, 48 hours incubation
Procedure: as §1

Melanoma cell lines = experiment: as above; assay type: cell-based; details: 9 cell lines, 48 hours incubation
Procedure: as §1

[2] = tested on: Non-Small Cell Lung Cancer cell lines; experiment: as above; assay type: cell-based; details: 9 cell lines, 48 hours incubation
Procedure: as §1

[3] = tested on: Ovarian Cancer cell lines; experiment: as above; assay type: cell-based; details: 6 cell lines, 48 hours incubation
Procedure: as §1

[4] = tested on: Prostate Cancer cell lines; experiment: as above; assay type: cell-based; details: 2 cell lines, 48 hours incubation
Procedure: as §1

Renal Cancer cell lines = experiment: as above; assay type: cell-based; details: 8 cell lines, 48 hours incubation
Procedure: as §1

[5] = tested on: 59 different human tumor cell lines; experiment: NCI-60 DTP human tumor cell line screen, all cell lines combined; assay type: cell-based; details: 48 h, all cancer types, 48 hours incubation
Procedure: as §1, with “Three different dose response parameters are then calculated: growth inhibition of 50% (GI50), which is the drug concentration resulting in a 50% reduction in the net protein increase, the drug concentration resulting in total growth inhibition (TGI) and the LC50, indicating a net loss of cells following treatment.” left out

[6] = tested on: human white preadipocytes (hWP); experiment: Cytotoxicity assay, normal cells; assay type: cell-based
Procedure: Cells were plated in 24-well plates. After cells were allowed to recover for 24 hours, NVX-412 was added in fresh growth medium. The maximal DMSO concentration reached in all experiments was below 0.01%. Respective control experiments at the highest DMSO concentration were performed in order to rule out DMSO-induced effects. After 72 hours incubation the proportion of viable cells was determined by cell counting with a Z1 Coulter Particle Counter (Beckman Coulter, Vienna, AUT), a ViCell XR (Beckman Coulter, Vienna, AUT) or a CASY® Cell Counter (Schärfe, Reutlingen, Germany). Cytotoxicity was expressed as IC50 values that were derived from the corresponding dose–response curves.

HT-29 cells = experiment: Proliferation kinetics; assay type: cell-based, human
Procedure: HT-29 cells were plated (2×10^4 cells/well) in 24-well plates. After a recovery period of 24 hours, NVX-412 was added in fresh growth medium to final concentrations of 0, 300 and 1000 nM, respectively. After 24, 48 and 72 hours cell numbers were determined with a Z1 Coulter Particle Counter.

p-p53 (Ser15) = experiment: Western Blot for p-p53 (Ser15) in HCT116 cells; assay type: cell-based, human; details: HCT116, 24 and 48 hours
Procedure: Treated cells were directly lysed in NP40 cell lysis buffer (Invitrogen, Grand Island, NY, USA) containing protease and phosphatase inhibitors. Protein concentrations were measured colorimetrically (DC Protein Assay, Bio-Rad Laboratories, Hercules, CA, USA). Proteins were separated by SDS - polyacrylamide gel electrophoresis and blotted onto nitrocellulose membranes (Whatman™, Vienna, AUT). Equal loading was checked by Ponceau S (SERVA, Heidelberg, GER) staining. Bound antigen was visualized with the enhanced chemiluminescence detection system (Roche Diagnostics, Indianapolis, IN, USA). These procedures were performed according to the manufacturer’s protocols. Antibodies specific for the following proteins of interest were used: pChk1 (Ser296), p-p53 (Ser15), β-Tubulin and GAPDH were obtained from Cell Signaling Technology (Danvers, MA, USA) at 1∶1000 dilution. Secondary antibodies were peroxidase-tagged goat anti-rabbit or anti-mouse IgGs (Cell Signaling Technology) (1∶2000).

[7] = tested on: HCT116 p53+/+ or p53−/− cells; experiment: Determination of p53 status dependency; assay type: cell-based, human; details: HCT116 p53+/+ vs p53−/−, 72 hours, viable cell numbers
Procedure: (§2) The isogenic colon carcinoma cells lines HCT116 p53+/+ or p53−/− and RKO p53+/+ or p53−/− were cultured in 12-well plates. After a recovery period of 24 hours, NVX-412 or Nutlin-3 was added in fresh growth medium at the indicated concentrations. […] After 24 or 72 hours cell numbers were determined with a Beckman Coulter ViCell XR.

[8] = tested on: RKO p53+/+ or p53−/− cells; experiment: Determination of p53 status dependency; assay type: cell-based, human; details: RKO p53+/+ vs p53−/−, 72 hours, viable cell numbers
Procedure: as §2

HCT116 cells = experiment: DNA replication rate (BrdU incorporation ELISA); assay type: cell-based, human
Procedure: (§3) HeLa and HCT116 cells were plated in black 96-well plates. After cells were allowed to recover for 24 hours NVX-412 or CPT was added in fresh growth medium. After 24 hours of incubation a chemiluminescent BrdU Incorporation ELISA (Roche Applied Science, Penzberg, Germany) was performed with half of the plates according to the manufacturer’s protocol. Cells in the remaining plates were allowed to recover for 24 hours in normal growth medium before DNA replication was measured (wash-out experiment). To check whether a possible decline in DNA replication rate is not simply due to lower cell numbers because of cell death induction, the proportion of viable cells was determined in parallel by a MTT-based cytotoxicity assay according to the manufacturer’s protocol (EZ4U, Biomedica, Vienna, Austria). Colorimetric (at 492 and 620 nm) and chemiluminescent measurements were performed using a FLUOstar OPTIMA (BMG Labtech, Ortenberg, Germany).

HeLa cells = experiment: DNA replication rate (BrdU incorporation ELISA); assay type: cell-based, human
Procedure: as §3

In the case of O=C(NNc1nc2cc(F)ccc2n2cccc12)c1cnccn1 [NVX-412, Pyrazine-2-carboxylic acid N’- (7-fluoro-pyrrolo[1,2-α]quinoxalin-4-yl)-hydrazide-oxalic acid co-crystal], the IC50 (Breast Cancer cell lines) is reported as 266 nM, the IC50 [1] is reported as 167 nM and the IC50 (Colon Cancer cell lines) is reported as 169 nM. For the same compound, the IC50 (Leukemia cell lines) was 62 nM, the IC50 (Melanoma cell lines) was 214 nM and the IC50 [2] was 174 nM. The IC50 [3] was 377 nM, the IC50 [4] was 276 nM and the IC50 (Renal Cancer cell lines) was 182 nM. The IC50 [5] was roughly 200 nM, the IC50 [6] was 1000 nM and the Proliferation of cells (HT-29 cells; HT-29, 300 nM (IC50), after 2 days, compared to untreated control) was “significantly decreased”. The Cell numbers (HT-29 cells; HT-29, 1 µM, 3 days of treatment) was “cell numbers started to decline below the numbers of cells seeded”, the “Phosphorylated p53 (Western Blot)” value (p-p53 (Ser15); below or at the IC50) was “negative for phosphorylated p53” and the “Phosphorylated p53 (Western Blot)” value (p-p53 (Ser15); concentrations above the IC50) was “strong induction”. For the same compound, the “p53 status dependency of sensitivity” value [7] was “the p53 status does not influence the sensitivity to NVX-412”, the “p53 status dependency of sensitivity” value [8] was “the p53 status does not influence the sensitivity to NVX-412” and the “DNA replication rate (BrdU incorporation)” value (HCT116 cells; HCT116, 24 hours treatment) was “reduction of DNA replication”. The “DNA replication rate after recovery (wash-out)” value (HCT116 cells; HCT116, 24 hours treatment then 24 hours in normal growth medium) was “the rate increased to normal levels”, the “DNA replication rate (BrdU incorporation)” value (HeLa cells; 24 hours treatment) was “reduction of DNA replication” and the “DNA replication rate after recovery (wash-out)” value (HeLa cells; 24 hours treatment then 24 hours in normal growth medium) was “the rate increased to normal levels”.
